Test results taken from patent US20070128727A1, “Methods for differentiation of embryonic stem cells” (priority 2005, published 2007).

Experiments:
Format in all cases: cell-based, mouse
[1] = test system: fully differentiated and induced cells (adipocytes from MESC); assay: Hormone induced lipolysis (glycerol release into medium); conditions: 4 hr in glucose-free DMEM; isoproterenol increasing concentrations; dibutyryl-cAMP 10^-3 M; forskolin 4×10^-5 M
Method: FIG. 4. Hormone induced lipolysis. Fully differentiated and induced cells were treated with increasing concentrations of isoproterenol in glucose-free DMEM containing 30 mg/ml of fatty acid free albumin and adenosine deaminase (1 U/ml) for 4 hr. The control samples were incubated with 10^−5 M N-(2-phenylisopropyl)-adenosine to replace the endogenous adenosine. The amount of glycerol in the medium was measured using a calorimetric kit. Differentiated and induced cells incubated with isoproterenol in 35 mm wells. B. Differentiated cells with or without induction cultures were incubated with 10^−3 M dibutyryl-cAMP or 4×10^−5 M forskolin in 60 mm diameter culture plates.

[2] = test system: embryoid body cultures from E14Tg2A cells; assay: Osteoblast differentiation, real time RT-PCR of osteoblast marker mRNA; conditions: day 31 cultures
Method: Two days afterwards, the droplets containing EBs were collected by adding medium to the cover and equally distributed onto 2 gelatinized (precoated with 0.1% gelatin) 100 mm petri dishes. Without treating with ATRA, the attached EBs were incubated in the induction medium containing 10^−7 M insulin and 2×10^−9 M T3 for 5 days.
After that, 0.3 mM of ascorbic acid phosphate (magnesium salt, Waco Chemicals, Dallas, Tex.) and 10 mM of β-glycerophosphate (Sigma-Aldrich Chemicals, St. Louis, Mo.) were added to the induction medium for an additional 9 days. At day 14, cultures were trypsinized to remove the cells and plated on to gelatin-coated 6-well culture plates at a density of 10^4 cells/cm^2. Three days after, at day 17, DEX at 10^−8 M was added to some of the wells to further induce osteoblast differentiation. Medium was replaced every 2 days throughout the culture period.
The cultures were terminated 2 weeks after at day 31 and stained for alkaline phosphatase (ALP) activity using a kit from Sigma following manufacturer's procedure (procedure No. 85). In this procedure, cells containing ALP activity, an osteoblast maker, appear in blue color. […]

[3] = test system: embryoid bodies from E14Tg2A embryonic stem cells; assay: Differentiation of adipocytes from embryoid bodies (oil-red-O staining, morphology); conditions: ATRA treated vs vehicle treated cultures, same differentiation process
Method: (§1) Mouse embryonic stem (ES) cells were used as the source of embryoid bodies (EBs). E14Tg2A cells were trypsinized and made into suspension in Glasgow Minimum essential medium containing 10% fetal bovine serum (growth medium). Cells were counted under a microscope using a haemocytometer, and were diluted to a concentration on 10^5 cells/mi. During cell passages, 1000 U/ml of leukemia inhibitory factor (LIF) was added to prevent differentiation.
To make EBs, cell suspensions after trypsinization were made into hanging droplets (20 μl) onto the cover of a bacteriological petri dish. The bottom of the dish was filled with PBS.
20 μl droplets of cells in suspension were pipetted onto the cover of a 100 mm bacteriological petri dish. […]
Two days afterwards, the droplets containing EBs were collected by adding medium to the cover and equally distributed onto 2 gelatinized (precoated with 0.1% gelatin) 100 mm petri dishes. […] After treating the cells for 8 days, cells were removed from the dish, counted with a hemocytometer and plated onto gelatinized 6-well culture plates at 10^4/cm^2. […]
ATRA treated cultures and vehicle treated control cultures underwent the same differentiation process as described in the Methods. […] The relative mass of specific RNA was calculated by the comparative cycle of threshold detection method according to the manufacturer's instruction. […]

Differentiated MESC = assay: Gene expression profile by Taqman real time PCR in differentiated MESC
Method: Two days afterwards, the droplets containing EBs were collected by adding medium to the cover and equally distributed onto 2 gelatinized (precoated with 0.1% gelatin) 100 mm petri dishes. The attached EBs were treated with 10^−6 M ATRA (all-trans retinoic acid) for 3 days to initiate differentiation. Medium was then changed into growth medium with 10^−7 M insulin and 2×10^−9 M of triiodothyronine (T3) (induction medium) to continue adipocyte differentiation. Medium was changed every two days. At day 10, further stimulation of induction was made by the addition of an induction cocktail [0.5 mM isobutylmethylxanthine (IBMX), 0.1 μM dexamethasone (DEX) and 1 μM of insulin]. After treating the cells for 8 days, cells were removed from the dish, counted with a hemocytometer and plated onto gelatinized 6-well culture plates at 10^4/cm^2. Cells with minute lipid droplets (adipocytes) appeared in two days. The number of the adipocytes and the size of droplets increased over time and reached a plateau at day 10.
ATRA treated cultures and vehicle treated control cultures underwent the same differentiation process as described in the Methods. […] Total RNA was extracted, and reverse-transcribed. The relative mass of specific RNA was calculated by the comparative cycle of threshold detection method according to the manufacturer's instruction. Two independent experiments were performed using different RNA preparations from the cultures; each run of PCR was conducted in triplicate. The expression of adipocyte markers was increased while some of the osteoblast markers were decreased.

MESC = assay: ATRA effects on growth of MESC (Alamar blue cell proliferation); conditions: ATRA 10^-6 M for three days, vs 0.1% DMSO vehicle, 500 cells/well
Method: as §1
FIG. 1. ATRA effects on growth of MESC. Cells were plated at 500/well in a 96-well culture plate. Starting on day 1, they were treated with ATRA (10^−6 M) for three days with replacement of fresh media each day. Control samples were treated with 0.1% DMSO (vehicle). At each indicated day, Alamar blue (10 μl/0.1 ml), an indicator for cell proliferation detection, was added to each well and the fluorescence generated was read after 4 hours.

## CCCC(=O)Nc1ncnc2c1ncn2[C@@H]1O[C@@H]2COP(=O)(O)O[C@H]2[C@H]1OC(=O)CCC [dibutyryl-cAMP]
[1]
  glycerol release (lipolysis): dose-dependent increase of glycerol release

## C[C@@H]1C[C@H]2[C@@H]3CCC4=CC(=O)C=C[C@]4(C)[C@@]3(F)[C@@H](O)C[C@]2(C)[C@@]1(O)C(=O)CO [DEX, dexamethasone]
[2]
  increase in expression of ALP mRNA: ~2 fold
  increase in expression of osteocalcin mRNA: 8 fold

## CC(C)NCC(O)c1ccc(O)c(O)c1 (stereo not shown) [isoproterenol]
[1]
  glycerol release (lipolysis): dose-dependent increase of glycerol release

## CC1=C(/C=C/C(C)=C/C=C/C(C)=C/C(=O)O)C(C)(C)CCC1 [ATRA, all-trans retinoic acid]
[3]
  formation of adipocytes at end of culture: formed numerous fully differentiated adipocytes
Differentiated MESC; adipocyte marker
  ALBP expression, Fold Change (ATRA/Control): +53.2 ± 0.09 fold
  HSL expression, Fold Change (ATRA/Control): +2.39 ± 0.17 fold
  PPAR-γ expression, Fold Change (ATRA/Control): +1.72 ± 0.42 fold
Differentiated MESC; osteoblast marker
  ALP expression, Fold Change (ATRA/Control): −2.54 ± 0.03 fold
  Collagen type 1α expression, Fold Change (ATRA/Control): +6.27 ± 0.26 fold
  Osteocalcin expression, Fold Change (ATRA/Control): −5.28 ± 0.05 fold
  Osteonectin expression, Fold Change (ATRA/Control): +2.02 ± 0.25 fold
MESC
  cell number (Alamar blue fluorescence): significant lowering of the cell number was only seen at day 3
